From patent US20260271978A1, “USE OF FATTY ACIDS TO MODIFY FLAVOR” (Firmenich Incorporated, priority 2023, published 2026)

Tests used:
[1] = Sensory panel rating of chickpea protein solution at 6% with fatty acid at 700 ppm; conditions: 700 ppm in chickpea protein, 6 wt% in water, no sugar; mean of 18 panelists, scale 0 to 5
Method: (§1) Liquid solutions of xchickpea protein were prepared (6 percent by weight in water) without sugar added. Control and test samples were prepared. To the test sample 10-undecenoic acid was added at a concentration of 700 ppm. The control and test samples were evaluated by 18 sensory panelists to rate various characteristics of the control sample and the test sample on a scale from 0 to 5.

[2] = Sensory panel rating of fava bean protein solution at 6% with fatty acid at 400 ppm; conditions: 400 ppm in fava bean protein, 6 wt% in water, no sugar; mean of 18 panelists, scale 0 to 5
Method: as §1, with “fava bean” for “xchickpea”, “400” for “700”

[3] = Sensory panel rating of pea protein solution at 3% with fatty acid at 1000 ppm; conditions: 1000 ppm in pea protein, 3 wt% in water, no sugar; mean of eight panelists, scale 0 to 5
Method: as §1, with “pea” for “xchickpea”, “(3” for “(6”, “1000” for “700”, “eight” for “18”

[4] = Sensory panel rating of pea protein solution at 3% with fatty acid at 700 ppm; conditions: 700 ppm in pea protein, 3 wt% in water, no sugar; mean of eight panelists, scale 0 to 5
Method: as §1, with “pea” for “xchickpea”, “(3” for “(6”, “eight” for “18”

[5] = Sensory panel rating of oat/pea protein blend solution at 3% with fatty acid at 400 ppm; conditions: 400 ppm in oat/pea protein blend (1:14 w/w), about 3 wt% in water, no sugar; mean of eight panelists, scale 0 to 5
Method: as §1, with “a blend of oat and pea” for “xchickpea”, “protein (1:14 w/w)” for “protein”, “(about 3” for “(6”, “400” for “700”, “eight” for “18”

[6] = Sensory panel rating of oat/pea protein blend solution at 6% with fatty acid at 400 ppm; conditions: 400 ppm in oat/pea protein blend (1:28 w/w), about 6 wt% in water, no sugar; mean of eight panelists, scale 0 to 5
Method: as §1, with “a blend of oat and pea” for “xchickpea”, “protein (1:28 w/w)” for “protein”, “(about 6” for “(6”, “400” for “700”, “eight” for “18”

**Q.** For `C=CCCCCCCCCC(=O)O` [10-undecenoic acid, Undec-10-enoic acid], which Astringent [1] is on record?
**A.** Its Astringent is 2.4.

**Q.** And the Bitter [1]?
**A.** Its Bitter is 2.1.

**Q.** What about the “Cereal Note” value [1] of the same compound?
**A.** Its value is 2.7.

**Q.** And the Creaminess [1]?
**A.** Its Creaminess is 2.3.

**Q.** And the Fattiness [1]?
**A.** Its Fattiness is 1.9.

**Q.** And the “Green/Vegetal Note” value [1]?
**A.** The value was 2.8.

**Q.** And the Mouthcoating [1]?
**A.** The Mouthcoating was 2.4.

**Q.** And the Sweet [1]?
**A.** The Sweet was 2.8.

**Q.** What about the Thickness [1] of the same compound?
**A.** Its Thickness is 1.6.

**Q.** And the Astringent [2]?
**A.** The Astringent was 3.2.

**Q.** What about the Bitter [2] of the same compound?
**A.** Its Bitter is 2.4.

**Q.** And the “Cereal Note” value [2]?
**A.** The value was 2.3.

**Q.** And the Creaminess [2]?
**A.** The Creaminess was 1.2.

**Q.** And the Fattiness [2]?
**A.** The Fattiness was 1.3.

**Q.** And the “Green/Vegetal Note” value [2]?
**A.** The value was 2.7.

**Q.** What about the Mouthcoating [2] of the same compound?
**A.** Its Mouthcoating is 1.8.

**Q.** And the Sweet [2]?
**A.** Its Sweet is 2.3.

**Q.** And the Thickness [2]?
**A.** The Thickness was 1.2.

**Q.** What about the Astringent [3] of the same compound?
**A.** The Astringent was 2.1.

**Q.** What about the Bitter [3] of the same compound?
**A.** The Bitter was 1.7.

**Q.** What about the “Cereal Note” value [3] of the same compound?
**A.** The value was 2.7.

**Q.** And the Creaminess [3]?
**A.** Its Creaminess is 2.1.

**Q.** And the Fattiness [3]?
**A.** The Fattiness was 2.0.

**Q.** What about the “Green/Vegetal Note” value [3] of the same compound?
**A.** Its value is 2.0.

**Q.** And the Mouthcoating [3]?
**A.** The Mouthcoating was 2.9.

**Q.** And the Sweet [3]?
**A.** Its Sweet is 3.4.

**Q.** What about the Thickness [3] of the same compound?
**A.** Its Thickness is 2.1.

**Q.** What about the Astringent [4] of the same compound?
**A.** The Astringent was 2.6.

**Q.** What about the Bitter [4] of the same compound?
**A.** The Bitter was 2.1.

**Q.** What about the “Cereal Note” value [4] of the same compound?
**A.** The value was 2.4.

**Q.** What about the Creaminess [4] of the same compound?
**A.** Its Creaminess is 1.8.

**Q.** And the Fattiness [4]?
**A.** Its Fattiness is 1.9.

**Q.** What about the “Green/Vegetal Note” value [4] of the same compound?
**A.** The value was 2.4.

**Q.** And the Mouthcoating [4]?
**A.** Its Mouthcoating is 2.3.

**Q.** What about the Sweet [4] of the same compound?
**A.** Its Sweet is 3.1.

**Q.** What about the Thickness [4] of the same compound?
**A.** Its Thickness is 2.0.

**Q.** And the Astringent [5]?
**A.** Its Astringent is 1.8.

**Q.** And the Bitter [5]?
**A.** Its Bitter is 1.7.

**Q.** What about the “Cereal Note” value [5] of the same compound?
**A.** The value was 2.5.

**Q.** What about the Creaminess [5] of the same compound?
**A.** Its Creaminess is 1.6.

**Q.** What about the Fattiness [5] of the same compound?
**A.** Its Fattiness is 1.4.

**Q.** What about the “Green/Vegetal Note” value [5] of the same compound?
**A.** The value was 2.1.

**Q.** What about the Mouthcoating [5] of the same compound?
**A.** The Mouthcoating was 2.0.

**Q.** And the Sweet [5]?
**A.** The Sweet was 3.6.

**Q.** And the Thickness [5]?
**A.** Its Thickness is 1.9.

**Q.** And the Astringent [6]?
**A.** Its Astringent is 1.8.

**Q.** What about the Bitter [6] of the same compound?
**A.** The Bitter was 1.8.

**Q.** And the “Cereal Note” value [6]?
**A.** Its value is 2.8.

**Q.** What about the Creaminess [6] of the same compound?
**A.** The Creaminess was 2.4.

**Q.** And the Fattiness [6]?
**A.** Its Fattiness is 2.3.

**Q.** What about the “Green/Vegetal Note” value [6] of the same compound?
**A.** Its value is 2.3.

**Q.** What about the Mouthcoating [6] of the same compound?
**A.** The Mouthcoating was 3.3.

**Q.** What about the Sweet [6] of the same compound?
**A.** The Sweet was 3.1.

**Q.** What about the Thickness [6] of the same compound?
**A.** The Thickness was 2.9.
